{"source": "patent US9051279B2", "about": "“Substituted isoquinolinones and quinazolinones” (Novartis AG, priority 2009, dated 2015)", "experiment": "Solubility and stability of crystalline sulphate salt form I compared to free base amorphous form", "assay_type": "physicochemical", "conditions": "compared to the free base amorphous form", "data": [{"smiles": "COc1cc2c(cc1OC(C)C)[C@H](c1ccc(Cl)cc1)N(c1ccc(N(C)C[C@H]3CC[C@H](N4CCN(C)C(=O)C4)CC3)cc1)C(=O)C2.O=S(=O)(O)O", "note": "[(S)-1-(4-Chloro-phenyl)-7-isopropoxy-6-methoxy-2-(4-{methyl-[4-(4-methyl-3-oxo-piperazin-1-yl)-trans-cyclohexylmethyl]-amino}-phenyl)-1,4-dihydro-2H-isoquinolin-3-one sulphate salt]", "values": [{"measurement": "solubility", "result": "improvements"}, {"measurement": "stability", "result": "improvements"}]}]}
